From PMC9225965 (Bioorganic & Medicinal Chemistry Letters, 2022)

What was measured:
SARS-CoV-2 M^pro = SARS-CoV-2 M^pro (Severe acute respiratory syndrome coronavirus 2, UniProt P0DTD1); assay: biochemical; conditions: for inhibition at 50 µM: read-out: M^pro inhibition
SARS-CoV-2 main protease = conditions: read-out: reported IC50; similar FRET-based assays; cited from earlier work

O=C(CSc1nc2cc(Cl)ccc2n1Cc1ccccc1)N1CCNC1=O [Compound 8]
activity in the presence of Triton-X (aggregation control) (SARS-CoV-2 M^pro; IC50 experiment repeated with 0.02 % Triton-X in reaction buffer): not attenuated | inhibition at 50 µM (SARS-CoV-2 M^pro): > 50%

COCCn1c(C(=O)NCC(O)c2ccccc2)nc2ccccc2c1=O (stereo not shown) [Compound 10]
inhibition at 50 µM (SARS-CoV-2 M^pro): > 50%
